Patent EP4389111A1, “METHOD OF PREPARATION OF C[…] […] AND C[…] […]” (Aero-Bw K. Domagala Sp. Jawna, priority 2022, dated 2024)
Values joined by “and” are separate entries in the source; they are usually repeats but may differ in a detail not shown here. Identical values can stand only once.

Test system: Salmonella typhimurium TA98
Assay: Ames test, strain TA98 (reading frame shift)
Type: cell-based
Details: positive control at 2 µg/mL

O=[N+]([O-])c1ccc2c(c1)Cc1ccccc1-2 [Extract 2-NF, 2-nitrofluorene]
MOI (Multiplicity of induction compared to baseline): 6.9 and 5.6
